Measured values from PMC6151383 (Molecules : A Journal of Synthetic Chemistry and Natural …, 2017).
Where two headings read alike, the source gives them in different places.

Key:
[1] = system: Trichophyton interdigitale 445; test: Antifungal microdilution broth MIC, T. interdigitale; type: cell-based
[2] = system: Staphylococcus aureus CCM 4516/08; set-up: method as in PMID 22365879; conditions: 48 h incubation; cited from earlier work
[3] = system: Staphylococcus epidermidis H 6966/08; set-up: method as in PMID 22365879; conditions: 48 h incubation; cited from earlier work
[4] = system: Enterococcus faecalis J 14365/08; set-up: method as in PMID 22365879; conditions: 48 h incubation; cited from earlier work
[5] = system: Escherichia coli CCM 4517; set-up: method as in PMID 22365879; conditions: 48 h incubation; cited from earlier work
[6] = system: Klebsiella pneumoniae D 11750/08; set-up: method as in PMID 22365879; conditions: 48 h incubation; cited from earlier work
[7] = system: ESBL-positive Klebsiella pneumoniae J 14368/08; set-up: method as in PMID 22365879; conditions: 48 h incubation; cited from earlier work
[8] = system: Pseudomonas aeruginosa CCM 1961; set-up: method as in PMID 22365879; conditions: 48 h incubation; cited from earlier work
[9] = system: Mycobacterium tuberculosis 331/88 (H37Rv); set-up: method as in PMID 22365879; conditions: cited from earlier work
[10] = system: Mycobacterium avium 330/88; set-up: method as in PMID 22365879; conditions: cited from earlier work
[11] = system: Mycobacterium kansasii 235/80; set-up: method as in PMID 22365879; conditions: cited from earlier work
M. kansasii 6509/96 [12] = system: M. kansasii 6509/96; set-up: method as in PMID 22365879; conditions: cited from earlier work
[13] = system: Candida albicans ATCC 44859; set-up: method as in PMID 22365879; conditions: 48 h incubation; cited from earlier work
Candida tropicalis 156 [14] = system: Candida tropicalis 156; set-up: method as in PMID 22365879; conditions: 48 h incubation; cited from earlier work
Candida krusei E28 [15] = system: Candida krusei E28; set-up: method as in PMID 22365879; conditions: 48 h incubation; cited from earlier work
Candida glabrata 20/I [16] = system: Candida glabrata 20/I; set-up: method as in PMID 22365879; conditions: 48 h incubation; cited from earlier work
Trichosporon asahii 1188 [17] = system: Trichosporon asahii 1188; set-up: method as in PMID 22365879; conditions: 48 h incubation; cited from earlier work
[18] = system: Aspergillus fumigatus 231; set-up: method as in PMID 22365879; conditions: 48 h incubation; cited from earlier work
[19] = system: Lichtheimia corymbifera 272; set-up: method as in PMID 22365879; conditions: 48 h incubation; cited from earlier work
[20] = system: Trichophyton interdigitale 445; set-up: method as in PMID 22365879; conditions: cited from earlier work
M. kansasii = system: M. kansasii; set-up: method as in PMID 22365879; conditions: range over M. kansasii strains; cited from earlier work
[21] = system: Staphylococcus aureus CCM 4516/08; test: Antibacterial microdilution broth MIC, S. aureus; type: cell-based; conditions: Staphylococcus aureus
[22] = system: Staphylococcus epidermidis H 6966/08; test: Antibacterial microdilution broth MIC, S. epidermidis; type: cell-based; conditions: Staphylococcus epidermidis
[23] = system: Enterococcus faecalis J 14365/08; test: Antibacterial microdilution broth MIC, E. faecalis; type: cell-based; conditions: Enterococcus faecalis
[24] = system: Escherichia coli CCM 4517; test: Antibacterial microdilution broth MIC, E. coli; type: cell-based; conditions: Escherichia coli
[25] = system: Pseudomonas aeruginosa CCM 1961; test: Antibacterial microdilution broth MIC, P. aeruginosa; type: cell-based; conditions: Pseudomonas aeruginosa
[26] = system: Mycobacterium tuberculosis 331/88 (H37Rv); test: In vitro antimycobacterial MIC, M. tuberculosis; type: cell-based
[27] = system: Mycobacterium avium 330/88; test: In vitro antimycobacterial MIC, M. avium; type: cell-based
[28] = system: Mycobacterium kansasii 235/80; test: In vitro antimycobacterial MIC, M. kansasii 235/80; type: cell-based
M. kansasii 6509/96 [29] = test: In vitro antimycobacterial MIC, M. kansasii clinical isolate; type: cell-based; conditions: Mycobacterium kansasii
[30] = system: Candida albicans ATCC 44859; test: Antifungal microdilution broth MIC, C. albicans; type: cell-based
Candida tropicalis 156 [31] = test: Antifungal microdilution broth MIC, C. tropicalis; type: cell-based
Candida krusei E28 [32] = test: Antifungal microdilution broth MIC, C. krusei; type: cell-based; conditions: Pichia kudriavzevii
Candida glabrata 20/I [33] = test: Antifungal microdilution broth MIC, C. glabrata; type: cell-based; conditions: Nakaseomyces glabratus
Trichosporon asahii 1188 [34] = test: Antifungal microdilution broth MIC, T. asahii; type: cell-based
[35] = system: Aspergillus fumigatus 231; test: Antifungal microdilution broth MIC, A. fumigatus; type: cell-based
[36] = system: Lichtheimia corymbifera 272; test: Antifungal microdilution broth MIC, L. corymbifera; type: cell-based
Candida sp. = test: Selectivity index for Candida sp. (IC50 HepG2/MIC); type: cell-based; conditions: all Candida species
[37] = system: ESBL-positive Klebsiella pneumoniae J 14368/08; conditions: 48 h incubation
[38] = system: Klebsiella pneumoniae D 11750/08; test: Antibacterial microdilution broth MIC, K. pneumoniae; conditions: 48 h incubation

O=S(=O)(Nc1ncccn1)c1ccc(N=Cc2cc(Cl)ccc2O)cc1 [Compound 2c, 4-[(5-Chloro-2-hydroxybenzylidene)amino]-N-(pyrimidin-2-yl)benzenesulfonamide]
>500 µM: MIC SE 48 h [3] | MIC EF 48 h [4] | MIC EC 48 h [5] | MIC KP 48 h [6] | MIC KP-E 48 h [7] | MIC PA 48 h [8] | MIC CT 48 h (Candida tropicalis 156 [14]) | MIC CK 48 h (Candida krusei E28 [15]) | MIC AF 48 h [18] | MIC LC 48 h [19] | MIC TI 72 h ([20]; 72 h incubation) | MIC TI 120 h ([20]; 120 h incubation)
8 µM: MIC M. kansasii 235/80 7 d ([11]; 7 d incubation)
250 µM: MIC SA 48 h [2] | MIC Mtb. 331/88 21 d ([9]; 21 d incubation)
inactive: SI for TI ([1]; SI = IC50 (HepG2)/MIC, Trichophyton interdigitale)
32 µM: MIC M. kansasii 235/80 21 d ([11]; 21 d incubation) | MIC M. kansasii 6509/96 14 d (M. kansasii 6509/96 [12]; 14 d incubation) | MIC M. kansasii 6509/96 21 d (M. kansasii 6509/96 [12]; 21 d incubation)
8 to 32 µM: MIC, M. kansasii strains (M. kansasii)
16 µM: MIC M. kansasii 235/80 14 d ([11]; 14 d incubation) | MIC M. kansasii 6509/96 7 d (M. kansasii 6509/96 [12]; 7 d incubation)
125 µM: MIC Mtb. 331/88 14 d ([9]; 14 d incubation) | MIC M. avium 330/88 14 d ([10]; 14 d incubation) | MIC M. avium 330/88 21 d ([10]; 21 d incubation) | MIC CA 48 h [13] | MIC CG 48 h (Candida glabrata 20/I [16]) | MIC TA 48 h (Trichosporon asahii 1188 [17])

CC(C)(C)c1ccc(O)c(C=Nc2ccc(S(=O)(=O)Nc3ncccn3)cc2)c1 [Compound 2j, 4-{[5-(Tert-butyl)-2-hydroxybenzylidene]amino}-N-(pyrimidin-2-yl)benzenesulfonamide]
125 µM: MIC ([27]; 330/88, 336 h, 14 d incubation, read-out: MIC M. avium 330/88 14 d) | MIC ([27]; 330/88, 504 h, 21 d incubation, read-out: MIC M. avium 330/88 21 d)
inactive: SI for Candida sp. (Candida sp.)
32 µM: MIC ([26]; 336 h, 14 d incubation, read-out: MIC Mtb. 331/88 14 d) | MIC ([28]; 235/80, 336 h, 14 d incubation, read-out: MIC M. kansasii 235/80 14 d) | MIC (M. kansasii 6509/96 [29]; 6509/96, 504 h, 21 d incubation, read-out: MIC M. kansasii 6509/96 21 d)
62.5 µM: MIC ([26]; 504 h, 21 d incubation, read-out: MIC Mtb. 331/88 21 d) | MIC ([28]; 235/80, 504 h, 21 d incubation, read-out: MIC M. kansasii 235/80 21 d) | MIC ([1]; Trichophyton interdigitale, 445, 72 h, read-out: MIC TI 72 h) | MIC ([1]; Trichophyton interdigitale, 445, 120 h, read-out: MIC TI 120 h) | MIC ([1]; Trichophyton interdigitale, 445, read-out: MIC for T. interdigitale)
16 µM: MIC ([28]; 235/80, 168 h, 7 d incubation, read-out: MIC M. kansasii 235/80 7 d) | MIC (M. kansasii 6509/96 [29]; 6509/96, 168 h, 7 d incubation, read-out: MIC M. kansasii 6509/96 7 d) | MIC (M. kansasii 6509/96 [29]; 6509/96, 336 h, 14 d incubation, read-out: MIC M. kansasii 6509/96 14 d)
> 125 µM: MIC ([21]; CCM4516, 24 h, read-out: MIC SA 24 h) | MIC ([21]; CCM4516, 48 h, read-out: MIC SA 48 h) | MIC ([22]; H6966/08, 24 h, read-out: MIC SE 24 h) | MIC ([22]; H6966/08, 48 h, read-out: MIC SE 48 h) | MIC ([23]; J14365/08, 24 h, read-out: MIC EF 24 h) | MIC ([23]; J14365/08, 48 h, read-out: MIC EF 48 h) | MIC ([24]; CCM4517, 24 h, read-out: MIC EC 24 h) | MIC ([24]; CCM4517, 48 h, read-out: MIC EC 48 h) | MIC ([25]; CCM1961, 24 h, read-out: MIC PA 24 h) | MIC ([25]; CCM1961, 48 h, read-out: MIC PA 48 h) | MIC ([30]; ATCC44859, 24 h, read-out: MIC CA 24 h) | MIC ([30]; ATCC44859, 48 h, read-out: MIC CA 48 h) | MIC (Candida tropicalis 156 [31]; Candida tropicalis, 156, 24 h, read-out: MIC CT 24 h) | MIC (Candida tropicalis 156 [31]; Candida tropicalis, 156, 48 h, read-out: MIC CT 48 h) | MIC (Candida krusei E28 [32]; E28, 24 h, read-out: MIC CK 24 h) | MIC (Candida krusei E28 [32]; E28, 48 h, read-out: MIC CK 48 h) | MIC (Candida glabrata 20/I [33]; 24 h, read-out: MIC CG 24 h) | MIC (Candida glabrata 20/I [33]; 48 h, read-out: MIC CG 48 h) | MIC (Trichosporon asahii 1188 [34]; Trichosporon asahii, 1188, 24 h, read-out: MIC TA 24 h) | MIC (Trichosporon asahii 1188 [34]; Trichosporon asahii, 1188, 48 h, read-out: MIC TA 48 h) | MIC ([35]; Aspergillus fumigatus, 231, 24 h, read-out: MIC AF 24 h) | MIC ([35]; Aspergillus fumigatus, 231, 48 h, read-out: MIC AF 48 h) | MIC ([36]; Lichtheimia corymbifera, 272, 24 h, read-out: MIC LC 24 h) | MIC ([36]; Lichtheimia corymbifera, 272, 48 h, read-out: MIC LC 48 h)
>125 µM: MIC KP-E 48 h [37] | MIC KP 48 h [38]
